Laboratory results: patent US20190175526A1, “METHODS FOR TREATING CANCER” (Macau University of Science and Technology, priority 2017, published 2019)

Tests used:
A549 cells = experiment: MTT cell viability assay, A549 cells; type: cell-based; conditions: Homo sapiens, cell line A459 (A549), 72 hours
Protocol: (§1) Cell lines A549 and H460 were purchased from ATCC and cultivated in RPMI 1640 medium supplemented with 10% FBS (Gibco, Big Cabin, Okla., Me., USA), 1% penicillin-streptomycin solution and maintained at 37° C. in a CO2 incubator with 5% CO2. Compound 3039-0164 was dissolved in DMSO and stored at −40° C. Cells were seeded on a 96-well microplate with 3,000 cells/well, cultured overnight for cell adhesion, and treated with DMSO or various concentrations of compound 3039-0164 for 72 hours. Then, each well was added with 10 μL MTT (5 mg/mL) and incubated for 4 hours at […], followed by adding 100 μL acidic isopropanol (10% SDS and 0.01 mol/L HCl). Finally, an absorbance at 570 nm was measured by a microplate reader (Tecan, Morrisville, N.C., USA). Cell viability was calculated relative to untreated controls, with results based on at least three independent experiments. Two human non-small cell lung cancer (NSCLC) cell lines, A549 and H460, were treated with an increasing concentration (0, 2.5, 5.0, 7.5 and 10.0 μM) of compound 3039-0164 for 72 hours, and then cell viability was determined by MTT assay. As shown in FIG. 2a and FIG. 2b, the cell viability of A549 and H460 were both decreased by compound 3039-0164 in a dose-dependent manner.

H460 cells = experiment: MTT cell viability assay, H460 cells; type: cell-based; conditions: Homo sapiens, NCI-H460, cell line H460, 72 hours
Protocol: as §1

PRMT5 = PRMT5 (Homo sapiens, UniProt O14744); experiment: PRMT5 enzymatic assay (AlphaLISA); type: biochemical; conditions: 60 minutes at room temperature, read-out: IC50, PRMT5 enzyme activity
Chain of PRMT5 (O14744 2-637 limits assumed): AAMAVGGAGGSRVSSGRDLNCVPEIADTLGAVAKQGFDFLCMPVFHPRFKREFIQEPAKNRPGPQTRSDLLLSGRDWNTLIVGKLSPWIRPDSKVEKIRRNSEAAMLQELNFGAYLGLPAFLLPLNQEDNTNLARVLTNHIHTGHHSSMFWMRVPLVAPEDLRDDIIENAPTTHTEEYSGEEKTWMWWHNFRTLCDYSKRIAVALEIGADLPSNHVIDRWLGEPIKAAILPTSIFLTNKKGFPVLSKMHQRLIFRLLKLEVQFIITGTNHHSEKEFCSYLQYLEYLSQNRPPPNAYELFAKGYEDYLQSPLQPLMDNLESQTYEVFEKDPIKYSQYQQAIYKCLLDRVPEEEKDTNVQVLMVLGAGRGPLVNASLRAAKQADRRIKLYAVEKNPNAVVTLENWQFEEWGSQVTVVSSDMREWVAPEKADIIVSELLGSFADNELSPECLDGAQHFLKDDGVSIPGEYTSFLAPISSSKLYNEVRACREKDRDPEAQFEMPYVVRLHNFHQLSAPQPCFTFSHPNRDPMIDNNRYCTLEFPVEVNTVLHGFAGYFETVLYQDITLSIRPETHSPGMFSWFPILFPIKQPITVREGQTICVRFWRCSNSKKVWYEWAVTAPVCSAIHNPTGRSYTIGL
Chain of PRMT5 (Q9BQA1 2-342 partner limits assumed): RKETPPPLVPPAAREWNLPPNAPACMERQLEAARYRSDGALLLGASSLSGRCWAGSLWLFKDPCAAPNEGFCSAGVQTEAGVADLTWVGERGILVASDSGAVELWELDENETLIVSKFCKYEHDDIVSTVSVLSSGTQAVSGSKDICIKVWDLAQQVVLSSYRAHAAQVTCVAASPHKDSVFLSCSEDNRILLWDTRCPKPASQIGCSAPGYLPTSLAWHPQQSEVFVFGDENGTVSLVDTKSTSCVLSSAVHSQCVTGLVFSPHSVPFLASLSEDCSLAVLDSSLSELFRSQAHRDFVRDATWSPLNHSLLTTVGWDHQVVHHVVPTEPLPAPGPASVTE
Protocol: PRMT5 enzymatic assay was carried out by Shanghai ChemPartner Co. (998 Halei Road, Pudong New Area, Shanghai, 201203, China). To measure IC50 values, 10 concentrations of compound 3039-0164 were tested. PRMT5 was purchased from BPS bioscience (Cat. No. 51045), and SAM/SAH were purchased from Sigma. Inc (Cat. No. A7007-100MG and No. A9384-25MG). Compound 3039-0164 was prepared as 10 mM stock in DMSO and diluted to final concentration in DMSO. PRMT5 and substrates were incubated with indicated concentrations of compounds in a 384-well plate for 60 minutes at room temperature. Then, acceptor and donor solutions were added to label the residual substrates of PRMT5. The labeling process lasted for 60 minutes at room temperature, followed by reading endpoint with EnSpire Plate Reader with Alpha mode (PerkinElmer). To investigate the influence of compound 3039-0164 on enzymatic activity and its “on-target” effect, AlphaLISA assay was carried out.

IC50 (A549 cells): 7.79 ± 1.8 µM
IC50 (H460 cells): 8.64 ± 1.46 µM
IC50 (PRMT5): 63.2 ± 4.5 µM
SMILES: O=C1c2ccccc2C(=O)c2c(NCCCN(CCO)CCO)cccc21 [compound 3039-0164]
